Data published in paper PMC9138141, “Design, Spectral Characteristics, Photostability, and Possibilities for Practical Application of BODIPY FL-Labeled Thioterpenoid” (Bioengineering, 2022).
Read-outs that look alike come from different tables or passages of the source.

Experiments:
[1] = Electronic absorption spectra in organic solvents; type: physicochemical
Procedure: (§1) The absorption and emission spectra of dyes solutions (in the range of 10^−6 to 10^−5 M) were recorded on CM 2203 spectrofluorometer (SOLAR) in a 10 mm of absorbing layer thickness at T = 25 ± 0.1 °C. The fluorescence quantum yield (φ), the fluorescence lifetime (τ), the rate constants of radiative processes (krad), and-radiative deactivation (knr) were obtained to use by the standard procedure. The fluorescence quantum yields (φ) of compounds were measured using the standard method (using standard Rhodamine 6G). The φ and τ errors were 10–15 %. The Stokes shift ( ΔλSt ) was calculated by the formula: […]

[2] = Photobleaching (photodegradation) under UV irradiation at 365 nm; type: physicochemical; conditions: for kobs∙106 of photodegradation / half-life: UV 365 nm; for half-life: read-out: t1/2 of photodegradation (converted)
Procedure: The photofading was carried out in quartz cells. The BODIPY solutions in cyclohexane (toluene, 1-octanol, DMSO with c = ~1·10^−5 mol·L^−1) were irradiated with monochromatic light (mercury lamp 250 W with a light filter Carl Zeiss JENA, at λ = 365 nm and room temperature). The area of the light flux was 2.02 cm^2 at a specific power W365 = 4.04 mW·cm^−2 of the UV lamp. The irreversible bleaching of the luminophores at the absorption peak was monitored as a function of time. The EAS of the dye solution was recorded at equal intervals of irradiation (through 5–20 min) on a spectrofluorometer SM2203 in the 300–600 nm wavelength range. The half-life (t1/2) was defined as the time during which the chromophore is destroyed by 50%. The error in determining of t1/2 is 3–5%.
The observed photooxidation rate constants (kobs) were determined by the equation ln(At/A0) = kobs∙t, where A0 and At are the initial and current optical density at the maximum of the long-wavelength absorption band, respectively, and t is the time of irradiation of the sample with UV light.

[3] = test system: laboratory mice erythrocytes; assay: Hemolytic activity (erythrotoxicity); type: cell-based; conditions: 20 µM, entire incubation period 5 h, 37 °C, PBS pH 7.4
Procedure: A 0.5% (v/v) suspension of laboratory mice erythrocytes in phosphate-buffered saline (PBS, pH 7.4) was used. The hemolytic activity (erythrotoxicity) of the compounds 2 and 6 was assessed by the degree of erythrocyte hemolysis 1, 3, and 5 h after the addition of solutions of the test compounds in DMSO (final concentration 20 μM). The erythrocyte suspension was incubated in a thermostatic shaker Biosan ES-20 with slow stirring at 37 °C temperature for 5 h. After 1, 3, and 5 h, an aliquot was taken, centrifuged, the degree of hemolysis was determined by the hemoglobin content in the supernatant on a Thermo Spectromic Genesys 20 spectrophotometer at λ = 541 nm. The percentage of hemolysis was calculated relative to the total hemolysis of the sample.

[4] = Luminescent characteristics (fluorescence) in organic solvents; type: physicochemical; conditions: for λmaxfl: λex 470 nm
Procedure: as §1

[5] = test system: laboratory mice erythrocytes; assay: Penetration into RBC (fluorescence of hemolysates and of residual medium); type: cell-based; conditions: 20 μM, 10, 30, 60 min incubation, RBC washed three times with PBS
Procedure: To assess the rate of penetration of the BODIPY 2 and its conjugate with a thioterpenoid 6 into RBC, the compounds were added to a suspension of erythrocytes (final concentration 20 μM) and incubated in a thermostatic shaker Biosan ES-20 with slow stirring at 37 °C. After 10, 30, and 60 min, an aliquot was taken and centrifuged to separate erythrocytes from the incubation medium containing the BODIPY 2 or conjugate 6. Erythrocytes were washed three times with PBS, hemolyzed by adding H2O, DMSO was added, and the fluorescence spectra of hemolysates were studied using a Fluorat-02-Panorama spectrofluorometer (Lumex, Saint Petersburg, Russia). The binding of the BODIPY 2 or conjugate 6 to cells was judged from the fluorescence intensity of the corresponding compounds in hemolysates. DMSO was added to the medium (PBS) remaining after cell incubation, and the corresponding fluorescence spectra were also analyzed. Its intensity was used to judge the residual content of the studied compounds in PBS.

[6] = range over the solvents studied

COC(=O)CCCC1=C2C(C)=CC(C)=[N+]2[B-](F)(F)n2c(C)cc(C)c21 [Compound 2]
ε, molar absorption coefficient ([1]; 1-butanol): 74136 L/mol/cm
λmaxabs S0→S1 ([1]; 1-butanol): 498 nm
λmaxabs S0→S2 ([1]; 1-butanol): 356–363 nm
ε, molar absorption coefficient ([1]; 1-octanol): 72443 L/mol/cm
λmaxabs S0→S1 ([1]; 1-octanol): 499 nm
λmaxabs S0→S2 ([1]; 1-octanol): 357–364 nm
ε, molar absorption coefficient ([1]; 1-propanol): 74948 L/mol/cm
λmaxabs S0→S1 ([1]; 1-propanol): 498 nm
λmaxabs S0→S2 ([1]; 1-propanol): 359–369 nm
ε, molar absorption coefficient ([1]; DMF): 76709 L/mol/cm
λmaxabs S0→S1 ([1]; DMF): 497 nm
λmaxabs S0→S2 ([1]; DMF): 357–363 nm
ε, molar absorption coefficient ([1]; DMSO): 66069 L/mol/cm
λmaxabs S0→S1 ([1]; DMSO): 497 nm
λmaxabs S0→S2 ([1]; DMSO): 356–363 nm
ε, molar absorption coefficient ([1]; chloroform): 74131 L/mol/cm
λmaxabs S0→S1 ([1]; chloroform): 501 nm
λmaxabs S0→S2 ([1]; chloroform): 358–363 nm
ε, molar absorption coefficient ([1]; cyclohexane): 87724 L/mol/cm
λmaxabs S0→S1 ([1]; cyclohexane): 500 nm
λmaxabs S0→S2 ([1]; cyclohexane): 359–364 nm
ε, molar absorption coefficient ([1]; ethanol): 72444 L/mol/cm
λmaxabs S0→S1 ([1]; ethanol): 497 nm
λmaxabs S0→S2 ([1]; ethanol): 356–361 nm
ε, molar absorption coefficient ([1]; toluene): 79432 L/mol/cm
λmaxabs S0→S1 ([1]; toluene): 501 nm
λmaxabs S0→S2 ([1]; toluene): 360–368 nm
kobs∙106 of photodegradation ([2]; 1-octanol): 3.1 ± 0.3 s⁻¹
kobs∙106 of photodegradation ([2]; DMSO): 27.7 ± 0.3 s⁻¹
kobs∙106 of photodegradation ([2]; cyclohexane): 2.9 ± 0.3 s⁻¹
half-life ([2]; solution in 1-octanol, 1-octanol): 82.3 h
half-life ([2]; solution in DMSO, DMSO): 8.3 h
half-life ([2]; solution in cyclohexane, cyclohexane): 88.6 h
half-life ([2]; solution in toluene, toluene): 40.5 h
half-life increase / photodestruction rate constant decrease compared to 7 ([2]; studied solvents): 1.5–2.2 times
kobs∙106 of photodegradation ([2]; toluene): 5.5 ± 0.3 s⁻¹
hemolysis of RBC (erythrotoxicity) [3]: did not exceed the spontaneous level
ΔλSt, Stokes shift ([4]; 1-butanol): 15 nm
φ, fluorescence quantum yield ([4]; 1-butanol): 0.966
λmaxfl ([4]; 1-butanol): 513 nm
ΔλSt, Stokes shift ([4]; 1-octanol): 16 nm
φ, fluorescence quantum yield ([4]; 1-octanol): 0.989
λmaxfl ([4]; 1-octanol): 515 nm
ΔλSt, Stokes shift ([4]; 1-propanol): 16 nm
φ, fluorescence quantum yield ([4]; 1-propanol): 0.956
λmaxfl ([4]; 1-propanol): 514 nm
ΔλSt, Stokes shift ([4]; DMF): 15 nm
φ, fluorescence quantum yield ([4]; DMF): 0.836
λmaxfl ([4]; DMF): 512 nm
ΔλSt, Stokes shift ([4]; DMSO): 15 nm
φ, fluorescence quantum yield ([4]; DMSO): 0.769
λmaxfl ([4]; DMSO): 512 nm
ΔλSt, Stokes shift ([4]; chloroform): 15 nm
φ, fluorescence quantum yield ([4]; chloroform): 0.908
λmaxfl ([4]; chloroform): 516 nm
ΔλSt, Stokes shift ([4]; cyclohexane): 12 nm
φ, fluorescence quantum yield ([4]; cyclohexane): 0.999
λmaxfl ([4]; cyclohexane): 512 nm
fluorescence quenching ([4]; electron-donating media): 16–24%
ΔλSt, Stokes shift ([4]; ethanol): 13 nm
φ, fluorescence quantum yield ([4]; ethanol): 0.910
increase of fluorescence quantum yield in the homologous series of alcohols ([4]; ethanol, 1-propanol, 1-butanol, 1-octanol): ~ 8%
λmaxfl ([4]; ethanol): 510 nm
constants of radiative processes (krad) [4, 6]: 5.96–8.33 × 10^7 s^−1
fluorescence lifetime [4, 6]: 10.2–16.0 ns
ΔλSt, Stokes shift ([4]; toluene): 17 nm
φ, fluorescence quantum yield ([4]; toluene): 0.991
λmaxfl ([4]; toluene): 518 nm
emission band maxima λmaxfl, range ([4]; λex = 470 nm, all solvents): 510–519 nm
penetration into erythrocytes (fluorescence of RBC hemolysates) [5]: practically not detected in hemolysates

CC1=CC(C)=[N+]2C1=Cc1c(C)cc(C)n1[B-]2(F)F [Compound 7, 4,4-Difluoro-1,3,5,7-tetramethyl-4-bora-3a,4a-diaza-s-indacene, reference compound]
ε, molar absorption coefficient ([1]; 1-butanol): 86745 L/mol/cm
λmaxabs S0→S1 ([1]; 1-butanol): 506 nm
λmaxabs S0→S2 ([1]; 1-butanol): 364–375 nm
ε, molar absorption coefficient ([1]; 1-octanol): 84427 L/mol/cm
λmaxabs S0→S1 ([1]; 1-octanol): 508 nm
λmaxabs S0→S2 ([1]; 1-octanol): 362–376 nm
ε, molar absorption coefficient ([1]; 1-propanol): 87096 L/mol/cm
λmaxabs S0→S1 ([1]; 1-propanol): 503 nm
λmaxabs S0→S2 ([1]; 1-propanol): 362–375 nm
ε, molar absorption coefficient ([1]; DMF): 85857 L/mol/cm
λmaxabs S0→S1 ([1]; DMF): 503 nm
λmaxabs S0→S2 ([1]; DMF): 364–375 nm
ε, molar absorption coefficient ([1]; DMSO): 82190 L/mol/cm
λmaxabs S0→S1 ([1]; DMSO): 504 nm
λmaxabs S0→S2 ([1]; DMSO): 363–376 nm
ε, molar absorption coefficient ([1]; chloroform): 89125 L/mol/cm
λmaxabs S0→S1 ([1]; chloroform): 508 nm
λmaxabs S0→S2 ([1]; chloroform): 363–374 nm
ε, molar absorption coefficient ([1]; cyclohexane): 91201 L/mol/cm
λmaxabs S0→S1 ([1]; cyclohexane): 509 nm
λmaxabs S0→S2 ([1]; cyclohexane): 366–376 nm
ε, molar absorption coefficient ([1]; ethanol): 81283 L/mol/cm
λmaxabs S0→S1 ([1]; ethanol): 505 nm
λmaxabs S0→S2 ([1]; ethanol): 363–374 nm
ε, molar absorption coefficient ([1]; toluene): 82444 L/mol/cm
λmaxabs S0→S1 ([1]; toluene): 511 nm
λmaxabs S0→S2 ([1]; toluene): 365–373 nm
ΔλSt, Stokes shift ([4]; 1-butanol): 10 nm
φ, fluorescence quantum yield ([4]; 1-butanol): 0.932
λmaxfl ([4]; 1-butanol): 516 nm
ΔλSt, Stokes shift ([4]; 1-octanol): 8 nm
φ, fluorescence quantum yield ([4]; 1-octanol): 0.941
λmaxfl ([4]; 1-octanol): 516 nm
ΔλSt, Stokes shift ([4]; 1-propanol): 10 nm
φ, fluorescence quantum yield ([4]; 1-propanol): 0.920
λmaxfl ([4]; 1-propanol): 513 nm
ΔλSt, Stokes shift ([4]; DMF): 10 nm
φ, fluorescence quantum yield ([4]; DMF): 0.990
λmaxfl ([4]; DMF): 513 nm
ΔλSt, Stokes shift ([4]; DMSO): 12 nm
φ, fluorescence quantum yield ([4]; DMSO): 0.963
λmaxfl ([4]; DMSO): 516 nm
Stokes shift, range ([4]; all solvents): 6–12 nm
ΔλSt, Stokes shift ([4]; chloroform): 8 nm
φ, fluorescence quantum yield ([4]; chloroform): 0.903
λmaxfl ([4]; chloroform): 516 nm
φ, fluorescence quantum yield ([4]; cyclohexane): 1.0
λmaxfl ([4]; cyclohexane): 514 nm
ΔλSt, Stokes shift ([4]; ethanol): 7 nm
φ, fluorescence quantum yield ([4]; ethanol): 0.879
λmaxfl ([4]; ethanol): 512 nm
ΔλSt, Stokes shift ([4]; toluene): 8 nm
φ, fluorescence quantum yield ([4]; toluene): 0.825
λmaxfl ([4]; toluene): 519 nm
